Results taken from paper PMC4410016 (Cell reports, 2015).

Key:
[1] = target: MtrF (Neisseria gonorrhoeae, UniProt Q9RNX2); test: isothermal titration calorimetry; assay type: binding
[2] = target: MtrF (Neisseria gonorrhoeae, UniProt Q9RNX2, W420A); test: biochemical
[3] = target: Neisseria gonorrhoeae MtrF transporter (Neisseria gonorrhoeae); test: SEC

Row | Molecule | Kd [1] | Kd [2] | stoichiometry N [3]
1 | Cc1cc(C)nc(NS(=O)(=O)c2ccc(N)cc2)n1 [sulfamethazine] | 0.33 ± 0.02 µM | 10.8 ± 1.17 µM | –
2 | Nc1ccc(S(=O)(=O)Nc2nccs2)cc1 [sulfathiazole] | 1.52 ± 0.07 µM | 50.8 ± 8.9 µM | –
3 | Nc1ccc(S(=O)(=O)Nc2ncccn2)cc1 [sulfadiazine] | 12.7 ± 0.62 µM | 106 ± 25.6 µM | –
4 | Neisseria gonorrhoeae MtrF transporter (natural protein) | – | – | 2
5 | Nc1ccc(C(=O)O)cc1 [p-aminobenzoic acid] | 0.54 ± 0.02 µM | 41.1 ± 11.5 µM | –
